# Measured values as given in patent publication US20240109903A1, “SUBSTITUTED HETEROCYCLES FOR TREATING CANCER” (Northwestern University, priority 2022, published 2024).
# Legend:
# Format in all cases: cell-based
# CCRF-CEM = assay: NCI 60 five-dose screen CCRF-CEM; conditions: Homo sapiens, five-dose
# HL-60(TB) = assay: NCI 60 five-dose screen HL-60(TB); conditions: Homo sapiens, five-dose
# K-562 = assay: NCI 60 five-dose screen K-562; conditions: Homo sapiens, K562, five-dose
# EKVX = assay: NCI 60 five-dose screen EKVX; conditions: Homo sapiens, five-dose
# HOP-92 = assay: NCI 60 five-dose screen HOP-92; conditions: Homo sapiens, five-dose
# NCI-H522 = assay: NCI 60 five-dose screen NCI-H522; conditions: Homo sapiens, five-dose
# HCT-116 = assay: NCI 60 five-dose screen HCT-116; conditions: Homo sapiens, five-dose
# HCT-15 = assay: NCI 60 five-dose screen HCT-15; conditions: Homo sapiens, five-dose
# HT29 = assay: NCI 60 five-dose screen HT29; conditions: Homo sapiens, HT-29, five-dose
# KM12 = assay: NCI 60 five-dose screen KM12; conditions: Homo sapiens, five-dose
# SW-620 = assay: NCI 60 five-dose screen SW-620; conditions: Homo sapiens, five-dose
# MALME-3M = assay: NCI 60 five-dose screen MALME-3M; conditions: Homo sapiens, MALME-3M, five-dose
# M14 = assay: NCI 60 five-dose screen M14; conditions: Homo sapiens, five-dose
# MDA-MB-435 = assay: NCI 60 five-dose screen MDA-MB-435; conditions: Homo sapiens, five-dose
# SK-MEL-2 = assay: NCI 60 five-dose screen SK-MEL-2; conditions: Homo sapiens, five-dose
# SK-MEL-5 = assay: NCI 60 five-dose screen SK-MEL-5; conditions: Homo sapiens, five-dose
# OVCAR-3 = assay: NCI 60 five-dose screen OVCAR-3; conditions: Homo sapiens, five-dose
# OVCAR-5 = assay: NCI 60 five-dose screen OVCAR-5; conditions: Homo sapiens, five-dose
# NCI/ADR-RES = assay: NCI 60 five-dose screen NCI/ADR-RES; conditions: Homo sapiens, five-dose
# A498 = assay: NCI 60 five-dose screen A498; conditions: Homo sapiens, five-dose
# ACHN = assay: NCI 60 five-dose screen ACHN; conditions: Homo sapiens, five-dose
# CAKI-1 = assay: NCI 60 five-dose screen CAKI-1; conditions: Homo sapiens, five-dose
# TK-10 = assay: NCI 60 five-dose screen TK-10; conditions: Homo sapiens, five-dose
# PC-3 = assay: NCI 60 five-dose screen PC-3; conditions: Homo sapiens, five-dose
# DU-145 = assay: NCI 60 five-dose screen DU-145; conditions: Homo sapiens, five-dose
# MCF7 = assay: NCI 60 five-dose screen MCF7; conditions: Homo sapiens, five-dose
# HS 578T = assay: NCI 60 five-dose screen HS 578T; conditions: Homo sapiens, five-dose
# BT-549 = assay: NCI 60 five-dose screen BT-549; conditions: Homo sapiens, five-dose
# [1] = read-out: LC50 (the source's name)
# [2] = read-out: LC50 (the source's name) (converted)
smiles,measurement,setting,value
FC(F)(F)CN1CCN(CCn2c(C(F)(F)F)cc3c(Cl)ncnc32)CC1 [NUCC-0226683],GI50,CCRF-CEM,4.37 µM
same,IC50,CCRF-CEM,7.41 µM
same,IC (TGI),CCRF-CEM,100 µM
same,CC50,CCRF-CEM; [1],≥ 100 µM
same,GI50,HL-60(TB),2750 nM
same,IC50,HL-60(TB),5.75 µM
same,IC (TGI),HL-60(TB),8.13 µM
same,CC50,HL-60(TB); [2],≥ 100 µM
same,GI50,K-562,2820 nM
same,IC50,K-562,3.47 µM
same,IC (TGI),K-562,100 µM
same,CC50,K-562; [1],≥ 100 µM
same,GI50,EKVX,11.7 µM
same,IC50,EKVX,28.8 µM
same,IC (TGI),EKVX,40.7 µM
same,CC50,EKVX; [2],≥ 100 µM
same,GI50,HOP-92,12.9 µM
same,IC50,HOP-92,32.4 µM
same,IC (TGI),HOP-92,29.5 µM
same,CC50,HOP-92; [2],66.1 µM
same,GI50,NCI-H522,1700 nM
same,IC50,NCI-H522,3.24 µM
same,IC (TGI),NCI-H522,3.55 µM
same,CC50,NCI-H522; [2],7.24 µM
same,GI50,HCT-116,3.16 µM
same,IC50,HCT-116,3.72 µM
same,IC (TGI),HCT-116,13.2 µM
same,CC50,HCT-116; [2],64.6 µM
same,GI50,HCT-15,2570 nM
same,IC50,HCT-15,3.55 µM
same,IC (TGI),HCT-15,7.41 µM
same,CC50,HCT-15; [2],50.1 µM
same,GI50,HT29,5.5 µM
same,IC50,HT29,7.41 µM
same,IC (TGI),HT29,36.3 µM
same,CC50,HT29; [2],≥ 100 µM
same,GI50,KM12,17.8 µM
same,IC50,KM12,30.2 µM
same,IC (TGI),KM12,39.8 µM
same,CC50,KM12; [2],89.1 µM
same,GI50,SW-620,4.9 µM
same,IC50,SW-620,6.17 µM
same,IC (TGI),SW-620,19.5 µM
same,CC50,SW-620; [2],63.1 µM
same,GI50,MALME-3M,14.5 µM
same,IC50,MALME-3M,33.9 µM
same,IC (TGI),MALME-3M,32.4 µM
same,CC50,MALME-3M; [2],70.8 µM
same,GI50,M14,6.17 µM
same,IC50,M14,12.3 µM
same,IC (TGI),M14,22.9 µM
same,CC50,M14; [2],67.6 µM
same,GI50,MDA-MB-435,5.5 µM
same,IC50,MDA-MB-435,9.12 µM
same,IC (TGI),MDA-MB-435,19.5 µM
same,CC50,MDA-MB-435; [2],51.3 µM
same,GI50,SK-MEL-2,15.8 µM
same,IC50,SK-MEL-2,31.6 µM
same,IC (TGI),SK-MEL-2,30.9 µM
same,CC50,SK-MEL-2; [2],60.3 µM
same,GI50,SK-MEL-5,3.72 µM
same,IC50,SK-MEL-5,6.17 µM
same,IC (TGI),SK-MEL-5,13.8 µM
same,CC50,SK-MEL-5; [2],37.2 µM
same,GI50,OVCAR-3,14.5 µM
same,IC50,OVCAR-3,28.8 µM
same,IC (TGI),OVCAR-3,34.7 µM
same,CC50,OVCAR-3; [2],83.2 µM
same,GI50,OVCAR-5,100 µM
same,IC50,OVCAR-5,100 µM
same,IC (TGI),OVCAR-5,100 µM
same,CC50,OVCAR-5; [2],≥ 100 µM
same,GI50,NCI/ADR-RES,19.1 µM
same,IC50,NCI/ADR-RES,35.5 µM
same,IC (TGI),NCI/ADR-RES,46.8 µM
same,CC50,NCI/ADR-RES; [2],≥ 100 µM
same,GI50,A498,21.4 µM
same,IC50,A498,100 µM
same,IC (TGI),A498,57.5 µM
same,CC50,A498; [2],≥ 100 µM
same,GI50,ACHN,12.3 µM
same,IC50,ACHN,22.4 µM
same,IC (TGI),ACHN,100 µM
same,CC50,ACHN; [2],≥ 100 µM
same,GI50,CAKI-1,13.5 µM
same,IC50,CAKI-1,25.7 µM
same,IC (TGI),CAKI-1,30.9 µM
same,CC50,CAKI-1; [2],69.2 µM
same,GI50,TK-10,35.5 µM
same,IC50,TK-10,100 µM
same,IC (TGI),TK-10,100 µM
same,CC50,TK-10; [2],≥ 100 µM
same,GI50,PC-3,3.55 µM
same,IC50,PC-3,5.01 µM
same,IC (TGI),PC-3,12 µM
same,CC50,PC-3; [2],57.5 µM
same,GI50,DU-145,12.6 µM
same,IC50,DU-145,22.4 µM
same,IC (TGI),DU-145,33.1 µM
same,CC50,DU-145; [2],87.1 µM
same,GI50,MCF7,10 µM
same,IC50,MCF7,15.8 µM
same,IC (TGI),MCF7,42.7 µM
same,CC50,MCF7; [2],≥ 100 µM
same,GI50,HS 578T,14.1 µM
same,IC50,HS 578T,100 µM
same,IC (TGI),HS 578T,60.3 µM
same,CC50,HS 578T; [1],≥ 100 µM
same,GI50,BT-549,12.9 µM
same,IC50,BT-549,26.9 µM
same,IC (TGI),BT-549,26.9 µM
same,CC50,BT-549; [2],55 µM
